# Experimental data reported in paper PMC8708689.
# T1: IRP1 (iron regulatory protein 1) (UniProt P21399 1-889)
# T1 sequence: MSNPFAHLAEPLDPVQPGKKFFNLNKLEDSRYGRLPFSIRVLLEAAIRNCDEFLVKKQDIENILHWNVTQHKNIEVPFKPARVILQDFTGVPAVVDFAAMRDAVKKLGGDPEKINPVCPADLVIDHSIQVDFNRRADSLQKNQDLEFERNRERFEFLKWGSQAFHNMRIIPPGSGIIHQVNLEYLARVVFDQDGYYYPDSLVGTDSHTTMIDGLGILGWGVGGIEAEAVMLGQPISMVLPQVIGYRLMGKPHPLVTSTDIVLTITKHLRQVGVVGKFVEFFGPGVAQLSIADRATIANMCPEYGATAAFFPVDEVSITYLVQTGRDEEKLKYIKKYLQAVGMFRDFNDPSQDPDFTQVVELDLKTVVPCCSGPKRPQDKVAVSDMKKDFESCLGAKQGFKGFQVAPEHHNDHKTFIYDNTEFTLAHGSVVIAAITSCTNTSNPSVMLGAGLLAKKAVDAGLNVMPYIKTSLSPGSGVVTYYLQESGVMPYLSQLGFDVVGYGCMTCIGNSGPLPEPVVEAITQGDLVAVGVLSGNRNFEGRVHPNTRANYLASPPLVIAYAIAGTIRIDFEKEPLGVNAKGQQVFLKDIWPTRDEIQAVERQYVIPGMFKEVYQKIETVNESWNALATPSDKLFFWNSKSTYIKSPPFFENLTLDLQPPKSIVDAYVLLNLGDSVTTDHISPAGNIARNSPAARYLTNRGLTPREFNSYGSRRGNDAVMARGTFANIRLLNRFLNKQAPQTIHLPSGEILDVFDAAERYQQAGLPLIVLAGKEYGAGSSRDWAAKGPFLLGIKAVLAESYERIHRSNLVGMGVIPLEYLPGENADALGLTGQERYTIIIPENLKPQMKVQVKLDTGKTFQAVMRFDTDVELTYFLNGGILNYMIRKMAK
# Key:
# [1] = tested on: APP IRE RNA (RNA, mRNA element) GGUGGCGGCGCGGGCAGAGCAAGGACGCGGCGGAU; assay: microscale thermophoresis, labelled IRP1; details: 150 mM NaCl; binds IRP1/RNA complex, RNA alone not tested; 2 nM IRP1, 600 nM RNA; 25 mM Tris pH 7.4, 0.1% Prionex
# [2] = tested on: H-ferritin IRE RNA (RNA, mRNA element) GGGGUUUCCUGCUUCAACAGUGCUUGGACGGAACC; assay: microscale thermophoresis, labelled IRP1; details: 150 mM NaCl; IRP1/RNA complex, RNA alone not tested; 2 nM IRP1, 250 nM RNA; same buffer; Posiphen to 50 µM
# [3] = molecular target: T1, IRP1 (iron regulatory protein 1); assay: MST; no Posiphen; MST: 2 nM labeled IRP1, 25 mM Tris pH 7.4, 150 mM NaCl, 0.1% Prionex, 10 min incubation; temperature not stated; details: protein: commercial; hairpin
Molecule,Kd [1] [nM],binding [2],Kd [3] [nM]
CN1CC[C@]2(C)c3cc(OC(=O)Nc4ccccc4)ccc3N(C)[C@H]12,3.2,no,–
GGUGGCGGCGCGGGCAGAGCAAGGACGCGGCGGAU (structured_RNA) [APP IRE RNA (atypical)],–,–,225
GGGGUUUCCUGCUUCAACAGUGCUUGGACGGAACC (structured_RNA) [H-ferritin IRE RNA (canonical)],–,–,88.5
